Read-outs that look alike come from different tables or passages of the source. Some results are limits rather than exact numbers.

In general, EC50 refers to the concentration at which the effect is half-maximal.

Assay [1] deals with T1, Full-length (FL)-PRMT5-MEP50 enzyme complex (Homo sapiens, UniProt O14744).
T1 construct: Full-length (FL)-PRMT5-MEP50 enzyme complex (recombinant proteins from baculovirus-transfected Sf21 cells: FL-PRMT5; MW=73837 kDa and FL-MEP50; MW=38614); made in house; host or cells: baculovirus-transfected Sf21 cells
T1 sequence (O14744 whole entry): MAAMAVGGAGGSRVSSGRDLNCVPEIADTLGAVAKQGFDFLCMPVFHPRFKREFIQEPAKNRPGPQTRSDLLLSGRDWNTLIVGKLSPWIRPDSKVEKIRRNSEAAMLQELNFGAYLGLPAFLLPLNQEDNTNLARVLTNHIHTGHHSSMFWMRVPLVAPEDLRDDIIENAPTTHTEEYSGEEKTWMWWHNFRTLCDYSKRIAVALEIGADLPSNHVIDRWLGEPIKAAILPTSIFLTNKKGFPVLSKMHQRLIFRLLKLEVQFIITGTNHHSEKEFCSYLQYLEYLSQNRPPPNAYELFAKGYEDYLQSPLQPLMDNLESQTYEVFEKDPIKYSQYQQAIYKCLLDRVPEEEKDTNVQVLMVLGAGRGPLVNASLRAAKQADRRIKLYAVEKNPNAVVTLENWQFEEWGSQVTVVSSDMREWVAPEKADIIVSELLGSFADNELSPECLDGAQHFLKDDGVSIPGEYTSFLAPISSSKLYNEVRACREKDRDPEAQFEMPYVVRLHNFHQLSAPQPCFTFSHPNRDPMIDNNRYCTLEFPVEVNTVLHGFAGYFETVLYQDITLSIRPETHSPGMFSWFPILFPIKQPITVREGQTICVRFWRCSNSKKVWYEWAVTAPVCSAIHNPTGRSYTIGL
T1 sequence (Q9BQA1 whole entry partner): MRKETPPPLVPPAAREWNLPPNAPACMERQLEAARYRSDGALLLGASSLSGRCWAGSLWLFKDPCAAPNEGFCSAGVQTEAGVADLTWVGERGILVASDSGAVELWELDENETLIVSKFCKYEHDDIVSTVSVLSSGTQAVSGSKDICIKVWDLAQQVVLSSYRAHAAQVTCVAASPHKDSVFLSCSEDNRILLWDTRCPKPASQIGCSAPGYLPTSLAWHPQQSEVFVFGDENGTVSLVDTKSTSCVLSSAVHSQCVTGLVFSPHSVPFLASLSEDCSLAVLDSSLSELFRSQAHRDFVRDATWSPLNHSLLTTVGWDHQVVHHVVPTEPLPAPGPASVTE
The assay is described as follows: PRMT5-MEP50 Enzyme Methylation Assay (Version A). In kind it is biochemical. An outline of the steps:
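Compound was pre-incubated with enzyme for 60 min, then reacted 150 min at 37° C. at final 1.0 nM PRMT5-MEP50, 15 μM SAM and 75 nM biotinylated H4R3(Me1) peptide, in 50 mM Bicine pH 8.0 with 1% DMSO. SAMDI mass-spectrometric readout of Me1→Me2 conversion. EC50 from 4- or 7-parameter regression.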

Assay [2] relates to symmetric dimethylation of arginine (SDMA) of PRMT5 substrates in MCF-7 cells. The assay is described as follows: PRMT5 Cell Target Engagement (TE) Assay. In kind it is cell-based. The conditions noted are these: Homo sapiens, MCF7, 72 h, 3 days treatment, SDMA high content imaging. The gist of the method:
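MCF-7 cells treated 3 days at 37 °C with a ten-point 1:3 titration from 10000 nM. Fixed cells immunostained with anti-SDMA and Alexa488 secondary; nuclear fluorescence quantified by high-content imaging versus DMSO wells, with IC50 from a 4-parameter fit.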

Where [3] appears, read: second value of 7 parameter biphasic fit, read-out: Enzyme Methylation Assay Version A (EC50 2).
The mark [4] stands for this setting: single EC50 = 4 parameter single site sigmoidal fit, EC50 1 = first value of 7 parameter biphasic fit, read-out: Enzyme Methylation Assay Version A (EC50 or EC50 1).

On to `O=C(c1cn2cc(C(F)(F)F)cnc2n1)N1CC[C@]2(Cc3ccccc3CN2)[C@H](O)C1` [Example 169, [(3R,3′R)-3′-hydroxy-1,4-dihydro-1′H,2H-spiro[isoquinoline-3,4′-piperidin]-1′-yl][6-(trifluoromethyl)imidazo[1,2-a]pyrimidin-2-yl]methanone], for which the EC50 in assay [1] (setting [3]) is 427 nM; in assay [1] (setting [4]), 1.51 nM; in assay [2], 89 nM.
The corresponding values for `O=C(c1ccc2c(c1)NCCN(CC(F)(F)F)C2=O)N1CC[C@]2(Cc3ccccc3CN2)[C@H](O)C1` [Example 170, 8-{[(3R,3′R)-3′-hydroxy-1,4-dihydro-1′H,2H-spiro[isoquinoline-3,4′-piperidin]-1′-yl]carbonyl}-4-(2,2,2-trifluoroethyl)-1,2,3,4-tetrahydro-5H-1,4-benzodiazepin-5-one] are 1780 nM, 2.56 nM and 19 nM.
`O=C(c1cc2n(n1)CCS(=O)(=O)C2)N1CC[C@]2(Cc3ccccc3CN2)[C@H](O)C1` [Example 177, (5,5-dioxido-6,7-dihydro-4H-pyrazolo[5,1-c][1,4]thiazin-2-yl)((3R,3′R)-3′-hydroxy-1,4-dihydro-2H-spiro[isoqiuinoline-3,4′-piperidin]-1′-yl)methanone]: the figures for the EC50 in assay [1] (setting [4]) and in assay [2] were 1910 nM and at least 10000 nM, respectively.
Turning to `Cc1cc(C)n2nc(C(=O)N3CC[C@]4(Cc5ccccc5CN4)[C@H](O)C3)nc2n1` [Example 178, (5,7-dimethyl-[1,2,4]triazolo[1,5-a]pyrimidin-2-yl)((3R,3′R)-3′-hydroxy-1,4-dihydro-2H-spiro[isoquinoline-3,4′-piperidin]-1′-yl)methanone], the EC50 in assay [1] (setting [3]) was 85100 nM; in assay [1] (setting [4]) it was 129 nM; in assay [2], 3210 nM.
The corresponding values for `Cc1cc(C(F)F)n2nc(C(=O)N3CC[C@]4(Cc5ccccc5CN4)[C@H](O)C3)nc2n1` [Example 179, (7-(difluoromethyl)-5-methyl-[1,2,4]triazolo[1,5-a]pyrimidin-2-yl)((3R,3′R)-3′-hydroxy-1,4-dihydro-2H-spiro[isoquinoline-3,4′-piperidin]-1′-yl)methanone] are 69200 nM, 513 nM and 8760 nM.
With `Cc1nn(C)c2ncc(C(=O)N3CC[C@]4(Cc5ccccc5CN4)[C@H](O)C3)c(Cl)c12` [Example 180, (4-chloro-1,3-dimethyl-1H-pyrazolo[3,4-b]pyridin-5-yl)((3R,3′R)-3′-hydroxy-1,4-dihydro-2H-spiro[isoquinoline-3,4′-piperidin]-1′-yl)methanone], the EC50 in assay [1] (setting [3]) is 52500 nM; in assay [1] (setting [4]), 51.3 nM; in assay [2], 1320 nM.
The matching figures for `Cc1cc2ncc(C(=O)N3CC[C@]4(Cc5ccccc5CN4)[C@H](O)C3)c(C)n2n1` [Example 181, (2,7-dimethylpyrazolo[1,5-a]pyrimidin-6-yl)((3R,3′R)-3′-hydroxy-1,4-dihydro-2H-spiro[isoquinoline-3,4′-piperidin]-1′-yl)methanone]: 3980 nM, 20.9 nM and 924 nM.
The corresponding values for `O=C(c1cc2oc3ccccc3c2cc1O)N1CC[C@]2(Cc3ccccc3CN2)[C@H](O)C1` [Example 182, ((3R,3′R)-3′-hydroxy-1,4-dihydro-2H-spiro[isoquinoline-3,4′-piperidin]-1′-yl)(2-hydroxydibenzo[b,d]furan-3-yl)methanone] are 1350 nM, 4.57 nM and 155 nM.
The corresponding values for `Cc1cc(-c2onc(C)c2C(=O)N2CC[C@]3(Cc4ccccc4CN3)[C@H](O)C2)no1` [Example 183, (3′,5-dimethyl-[3,5′-biisoxazol]-4′-yl)((3R,3′R)-3′-hydroxy-1,4-dihydro-2H-spiro[isoquinoline-3,4′-piperidin]-1′-yl)methanone] are 7940 nM, 4.87 nM and 297 nM.
Regarding `Cc1cc2nnc(C(=O)N3CC[C@]4(Cc5ccccc5CN4)[C@H](O)C3)c(C)n2n1` [Example 184, (4,7-dimethylpyrazolo[5,1-c][1,2,4]triazin-3-yl)((3R,3′R)-3′-hydroxy-1,4-dihydro-2H-spiro[isoquinoline-3,4′-piperidin]-1′-yl)methanone], the EC50 in assay [1] (setting [3]) worked out at 21900 nM; in assay [1] (setting [4]) it was 16.2 nM; in assay [2], 995 nM.
As for `O=C(c1nccn2nccc12)N1CC[C@]2(Cc3ccccc3CN2)[C@H](O)C1` [Example 185, ((3R,3′R)-3′-hydroxy-1,4-dihydro-2H-spiro[isoquinoline-3,4′-piperidin]-1′-yl)(pyrazolo[1,5-a]pyrazin-4-yl)methanone], the EC50 in assay [1] (setting [3]) is 26900 nM; in assay [1] (setting [4]), 24 nM; in assay [2] it was 1540 nM.
Consider `Cc1ccc(C(=O)N2CC[C@]3(Cc4ccccc4CN3)[C@H](O)C2)c(-n2nccn2)n1` [Example 186, ((3R,3′R)-3′-hydroxy-1,4-dihydro-2H-spiro[isoquinoline-3,4′-piperidin]-1′-yl)(6-methyl-2-(2H-1,2,3-triazol-2-yl)pyridin-3-yl)methanone], for which the EC50 in assay [1] (setting [3]) was found to be 501 nM; in assay [1] (setting [4]), 0.241 nM; in assay [2], 71.2 nM.
As to `O=C(c1ccnc(-n2cnnn2)c1)N1CC[C@]2(Cc3ccccc3CN2)[C@H](O)C1` [Example 187, (2-(1H-tetrazol-1-yl)pyridin-4-yl)((3R,3′R)-3′-hydroxy-1,4-dihydro-2H-spiro[isoquinoline-3,4′-piperidin]-1′-yl)methanone], the values for the EC50 in assay [1] (setting [3]), in assay [1] (setting [4]) and in assay [2] were 26900 nM, 75.9 nM and 4280 nM, respectively.
The matching figures for `O=C(c1ccc2nccn2n1)N1CC[C@]2(Cc3ccccc3CN2)[C@H](O)C1` [Example 188, ((3R,3′R)-3′-hydroxy-1,4-dihydro-2H-spiro[isoquinoline-3,4′-piperidin]-1′-yl)(imidazo[1,2-b]pyridazin-6-yl)methanone]: 74100 nM, 144 nM and 3320 nM.
Consider `O=C(c1ccnc2ncnn12)N1CC[C@]2(Cc3ccccc3CN2)[C@H](O)C1` [Example 189, [1,2,4]triazolo[1,5-a]pyrimidin-7-yl((3R,3′R)-3′-hydroxy-1,4-dihydro-2H-spiro[isoquinoline-3,4′-piperidin]-1′-yl)methanone], for which the EC50 in assay [1] (setting [3]) was 66100 nM; in assay [1] (setting [4]) it was 30.2 nM; in assay [2] it was 3500 nM.
Turning to `O=C(c1c[nH]c2ncncc12)N1CC[C@]2(Cc3ccccc3CN2)[C@H](O)C1` [Example 190, [(3R,3′R)-3′-hydroxy-1,4-dihydro-1′H,2H-spiro[isoquinoline-3,4′-piperidin]-1′-yl](1H-pyrrolo[2,3-d]pyrimidin-5-yl)methanone], the EC50 was 343 nM in assay [1] (setting [4]) and at least 10000 nM in assay [2].
The corresponding values for `Cc1nn(C)c2[nH]c(C(=O)N3CC[C@]4(Cc5ccccc5CN4)[C@H](O)C3)cc(=O)c12` [Example 191, 6-{[(3R,3′R)-3′-hydroxy-1,4-dihydro-1′H,2H-spiro[isoquinoline-3,4′-piperidin]-1′-yl]carbonyl}-1,3-dimethyl-1,7-dihydro-4H-pyrazolo[3,4-b]pyridin-4-one] are 2880 nM and at least 10000 nM.
For `O=C(c1ccc(-n2cnnn2)cn1)N1CC[C@]2(Cc3ccccc3CN2)[C@H](O)C1` [Example 192, [(3R,3′R)-3′-hydroxy-1,4-dihydro-1′H,2H-spiro[isoquinoline-3,4′-piperidin]-1′-yl][5-(1H-tetrazol-1-yl)-2-pyridinyl]methanone], the half-maximal effective concentration (EC50) in assay [1] (setting [3]) was 34700 nM; in assay [1] (setting [4]) it was 112 nM; in assay [2], at least 10000 nM.
`Cc1ccnc2nc(C(=O)N3CC[C@]4(Cc5ccccc5CN4)[C@H](O)C3)nn12` [Example 193, [(3R,3′R)-3′-hydroxy-1,4-dihydro-1′H,2H-spiro[isoquinoline-3,4′-piperidin]-1′-yl](7-methyl[1,2,d]triazolo[1,5-a]pyrimidin-2-yl)methanone]: the results for the concentration giving a half-maximal response (EC50) in assay [1] (setting [4]) and in assay [2] were 27000 nM and 9610 nM, respectively.
`O=C(c1cn2ncnc2cn1)N1CC[C@]2(Cc3ccccc3CN2)[C@H](O)C1` [Example 194, [(3R,3′R)-3′-hydroxy-1,4-dihydro-1′H,2H-spiro[isoquinoline-3,4′-piperidin]-1′-yl]([1,2,d]triazolo[1,5-a]pyrazin-6-yl)methanone]: the concentration for a half-maximal effect (EC50) is at least 100000 nM in assay [1] (setting [3]), 479 nM in assay [1] (setting [4]) and at least 10000 nM in assay [2].
`O=C(c1cnc2ncnn2c1)N1CC[C@]2(Cc3ccccc3CN2)[C@H](O)C1` [Example 195, [(3R,3′R)-3′-hydroxy-1,4-dihydro-1′H,2H-spiro[isoquinoline-3,4′-piperidin]-1′-yl]([1,2,d]triazolo[1,5-a]pyrimidin-6-yl)methanone]: the EC50 in assay [1] (setting [4]) is 15700 nM; in assay [2], at least 10000 nM.
As for `Cc1ccc(C(=O)N2CC[C@]3(Cc4ccccc4CN3)[C@H](O)C2)c(OCCO)n1` [Example 196, [(3R,3′R)-3′-hydroxy-1,4-dihydro-1′H,2H-spiro[isoquinoline-3,4′-piperidin]-1′-yl][2-(2-hydroxyethoxy)-6-methyl-3-pyridinyl]methanone], the values for the EC50 in assay [1] (setting [3]), in assay [1] (setting [4]) and in assay [2] were 6310 nM, 15.3 nM and 409 nM, respectively.

The values are drawn from US12441730B2, “PRMT5 inhibitors” (Merck Sharp & Dohme LLC, priority 2019, dated 2025).
